This is an account of results in patent US20100273805A1, “SULPHIDE BRIDGED DERIVATIVES AS MODULATORS OF MGLUR5 733” (AstraZeneca AB, priority 2009, published 2010).

Series [1] in a line: Determination of brain to plasma ratio in rat. The class given is in vivo. The note with it: brain and plasma, female Sprague Dawley rats, drug in brain over drug in plasma, read-out: Brain/Plasma Ratio of compound in Rat. The procedure: Brain to plasma ratios are estimated in female Sprague Dawley rats. The compound is dissolved in water or another appropriate vehicle. For determination of brain to plasma ratio the compound is administrated as a subcutaneous, or an intravenous bolus injection, or an intravenous infusion, or an oral administration. At a predetermined time point after the administration a blood sample is taken with cardiac puncture. The rat is terminated by cutting the heart open, and the brain is immediately retained. The blood samples are collected in heparinized tubes and centrifuged within 30 minutes, in order to separate the plasma from the blood cells. The plasma is transferred to 96-well plates and stored at −20° C. until analysis. The brains are divided in half, and each half is placed in a pre-tarred tube and stored at −20° C. until analysis. Prior to the analysis, the brain samples are thawed and 3 mL/g brain tissue of distilled water is added to the tubes. The brain samples are sonicated in an ice bath until the samples are homogenized. Both brain and plasma samples are precipitated with acetonitrile. After centrifugation, the supernatant is diluted with 0.2% formic acid. Analysis is performed on a short reversed-phase HPLC column with rapid gradient elution and MSMS detection using a triple quadrupole instrument with electrospray ionisation and Selected Reaction Monitoring (SRM) acquisition. Liquid-liquid extraction may be used as an alternative sample clean-up. The samples are extracted, by shaking, to an organic solvent after addition of a suitable buffer. An aliquot of the organic layer is transferred to a new vial and evaporated to dryness under a stream of nitrogen. After reconstitution of the residuals the samples are ready for injection onto the HPLC column.

The target in a further series is T1, human mGluR5d (Homo sapiens, UniProt P41594).
T1 construct: expressed in transfected cells
The series can be described thus: FLIPR assay, mobilization of intracellular calcium in cells expressing human mGluR5d. It counts as cell-based. The note with it: antagonism in cells expressing human mGluR5d, fluo-4 calcium signal; read-out: FLIPR hmGluR5d. An excerpt:
Functional Assessment of mGluR5 Antagonism in Cell Lines Expressing mGluR5D
The properties of the compounds of the invention can be analyzed using standard assays for pharmacological activity. Examples of glutamate receptor assays are well known in the art as described in for example Aramori et al., Neuron 8:757 (1992), Tanabe et al., Neuron 8:169 (1992), Miller et al., J. Neuroscience 15: 6103 (1995), Balazs, et al., J. Neurochemistry 69:151 (1997). The methodology described in these publications is incorporated herein by reference. Conveniently, the compounds of the invention can be studied by means of an assay (FLIPR) that measures the mobilization of intracellular calcium, [Ca^2+]i in cells expressing mGluR5 or another assay (IP3) that measures inositol phosphate accumulation.
Cells expressing human mGluR5d as described in WO97/05252 cultured in a mixture of high glucose DMEM with Glutamax (31966-021) (500 mL), 10% dialyzed fetal bovine serum (Hyclone #SH30079.03)(56 mL), 200 ug/mL Hygromycin B (Invitrogen 45-0430, 50 mg/mL) (2.2 mL), 200 ug/mL Zeocin (Invitrogen #R250-01; 100 mg/mL) (1.1 mL) are seeded at a density of 15,000 cells per well on a black poly-D Lysin coated 384-plate with clear bottom (BD Biocoat 356663). Cells are allowed to adhere over night before experiments. All assays are done in a buffer containing 146 mM NaCl, 5 mM KCl, 1 mM MgCl2, 1 mM CaCl2, 20 mM HEPES, 1 mg/mL glucose and 1 mg/mL BSA Fraction IV (pH 7.4). Cell cultures in the 384-well plates are loaded for 60 minutes in the above mentioned buffer containing 3 μM of the acetoxymethyl ester form of the fluorescent calcium indicator fluo-4 (Molecular Probes, Eugene, Oreg.) in 0.025% pluronic acid (a proprietary, non-ionic surfactant polyol—CAS Number 9003-11-6). Following the loading period, the fluo-4 buffer is removed and the cellplate is washed three times with fresh assay buffer. FLIPR experiments are done using a laser setting of 1.0 W and 0.4 second CCD camera shutter speed with excitation and emission wavelengths of 488 nm and 562 nm, respectively.
Each experiment is initiated with 20 μl of buffer present in each well of the cell plate when 7.5 μl from the antagonist plate is added. After 30 minutes incubation in the dark at 25° C., 20 μL from the agonist plate is added to the wells. The fluorescence signal is sampled 60 times at 1 second intervals followed by 20 samples at 6 seconds intervals immediately after the agonist addition. Responses are measured as the difference between the peak height of the response to agonist, less the background fluorescence within the sample period. IC50 determinations are made using a […] least squares fitting program.
(In general: A change in cytosolic calcium serves as a functional read-out for many receptors and channels.)

pIC50: −log10 of the molar value.

T1 sequence (P41594 21-942 isoform P41594-3 limits assumed): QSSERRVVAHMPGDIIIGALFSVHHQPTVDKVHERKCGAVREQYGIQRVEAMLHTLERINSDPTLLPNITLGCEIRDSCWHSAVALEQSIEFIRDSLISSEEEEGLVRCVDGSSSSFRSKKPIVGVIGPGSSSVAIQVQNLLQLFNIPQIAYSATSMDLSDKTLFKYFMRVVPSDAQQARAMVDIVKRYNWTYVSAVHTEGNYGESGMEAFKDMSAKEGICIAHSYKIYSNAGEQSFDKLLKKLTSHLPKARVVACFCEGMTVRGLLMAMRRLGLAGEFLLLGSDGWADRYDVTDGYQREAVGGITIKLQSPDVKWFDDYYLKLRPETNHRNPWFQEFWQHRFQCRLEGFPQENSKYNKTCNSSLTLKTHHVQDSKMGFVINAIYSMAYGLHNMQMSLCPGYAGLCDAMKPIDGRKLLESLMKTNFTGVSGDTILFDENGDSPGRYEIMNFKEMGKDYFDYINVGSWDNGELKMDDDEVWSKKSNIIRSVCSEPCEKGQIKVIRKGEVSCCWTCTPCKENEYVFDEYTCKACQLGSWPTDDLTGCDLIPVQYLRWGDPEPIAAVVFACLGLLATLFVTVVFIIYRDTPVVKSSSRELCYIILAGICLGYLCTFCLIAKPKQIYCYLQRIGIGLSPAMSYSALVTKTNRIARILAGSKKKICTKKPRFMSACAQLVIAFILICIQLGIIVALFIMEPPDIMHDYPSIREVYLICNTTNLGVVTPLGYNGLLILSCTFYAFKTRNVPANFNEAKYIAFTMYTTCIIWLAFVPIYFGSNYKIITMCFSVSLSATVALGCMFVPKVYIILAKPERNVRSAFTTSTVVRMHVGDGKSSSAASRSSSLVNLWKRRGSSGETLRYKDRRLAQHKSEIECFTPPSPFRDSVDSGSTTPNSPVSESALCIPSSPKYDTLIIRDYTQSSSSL

Consider `Cc1cccc(-n2nnc([C@@H](C)Sc3nnc(-c4ccn(C)c(=O)c4)n3C)n2)c1` [Example 8.2, (R)-1-Methyl-4-(4-methyl-5-(1-(2-m-tolyl-2H-tetrazol-5-yl)ethylthio)-4H-1,2,4-triazol-3-yl)pyridin-2(1H)-one], for which, in series [1], the Kp worked out at 0.1. The pIC50 on human mGluR5d was 7.06.

Turning to `Cc1cccc(-c2nc([C@@H](C)Sc3nnc(-c4cc[nH]c(=O)c4)n3C)no2)c1` [Example 8.3], the Kp in series [1] was 0.09. Further, the pIC50 at human mGluR5d is 7.62.

For `Cc1cccc(-n2nnc([C@@H](C)Sc3nnc(-c4cn[nH]c(=O)c4)n3C)n2)c1` [Example 8.8, (R)-5-(4-Methyl-5-(1-(2-m-tolyl-2H-tetrazol-5-yl)ethylthio)-4H-1,2,4-triazol-3-yl)pyridazin-3(2H)-one], the Kp in series [1] was less than 0.01. On human mGluR5d, the pIC50 is 7.74.

For `Cc1cccc(-c2nc([C@@H](C)Sc3nnc(-c4ccn(C)c(=O)c4)n3C)no2)c1` [Example 8.4, (R)-1-Methyl-4-(4-methyl-5-(1-(5-m-tolyl-1,2,4-oxadiazol-3-yl)ethylthio)-4H-1,2,4-triazol-3-yl)pyridin-2(1H)-one], the Kp in series [1] was 0.16. At human mGluR5d, the pIC50 was 7.52.

Consider `Cc1cccc(-c2cc([C@@H](C)Sc3nnc(-c4cc[nH]c(=O)c4)n3C)no2)c1` [Example 8.5, (R)-4-(4-Methyl-5-(1-(5-m-tolylisoxazol-3-yl)ethylthio)-4H-1,2,4-triazol-3-yl)pyridin-2(1H)-one], for which the Kp in series [1] is less than 0.01. For the same compound, the pIC50 at human mGluR5d was 6.84.

`C[C@@H](Sc1nnc(-c2cn[nH]c(=O)c2)n1C)c1nnn(-c2cccc(Cl)c2)n1` [Example 8.9, (R)-5-(5-(1-(2-(3-Chlorophenyl)-2H-tetrazol-5-yl)ethylthio)-4-methyl-4H-1,2,4-triazol-3-yl)pyridazin-3(2H)-one]: the Kp in series [1] was less than 0.015. Besides, the pIC50 at human mGluR5d is 7.74.

For `Cc1cccc(-n2nnc([C@@H](C)Sc3nnc(-c4cc[nH]c(=O)c4)n3C)n2)c1` [Example 8.1, (R)-4-(4-Methyl-5-(1-(2-m-tolyl-2H-tetrazol-5-yl)ethylthio)-4H-1,2,4-triazol-3-yl)pyridin-2(1H)-one], in series [1], the Kp is less than 0.01. In addition, on human mGluR5d, the pIC50 is 7.72.

In the case of `Cc1cccc(-c2nc([C@@H](C)Sc3nnc(-c4cn[nH]c(=O)c4)n3C)no2)c1` [Example 8.10, (R)-5-(4-Methyl-5-(1-(5-m-tolyl-1,2,4-oxadiazol-3-yl)ethylthio)-4H-1,2,4-triazol-3-yl)pyridazin-3(2H)-one], the Kp in series [1] was found to be 0.04. Also, at human mGluR5d, the pIC50 was 7.39.

On to `Cc1cccc(-c2cc([C@@H](C)Sc3nnc(-c4cn[nH]c(=O)c4)n3C)no2)c1` [Example 8.7, (R)-5-(4-Methy1-5-(1-(5-m-tolylisoxazol-3-yl)ethylthio)-4H-1,2,4-triazol-3-yl)pyridazin-3(2H)-one], for which, in series [1], the Kp came to 0.26. In addition, the pIC50 at human mGluR5d is 7.72.

Turning to `Cc1cccc(-c2cc([C@@H](C)Sc3nnc(-c4ccn(C)c(=O)c4)n3C)no2)c1` [Example 8.6, (R)-1-Methyl-4-(4-methyl-5-(1-(5-m-tolylisoxazol-3-yl)ethylthio)-4H-1,2,4-triazol-3-yl)pyridin-2(1H)-one], in series [1], the Kp amounted to 0.02. Also, the pIC50 on human mGluR5d was 6.42.
